{"source": "patent US20050112573A1", "about": "“Method of detecting toxic substance” (priority 2001, published 2005)", "tested_on": "yeast genes (level of expressed mRNA)", "assay": "DNA chip analysis of expressed mRNA of yeast genes after 2 h culture with a toxic chemical substance", "type": "cell-based, Saccharomyces cerevisiae S288C", "settings": "for The level of expressed mRNA in the presence of chemical substance/ (ratio to absence of chemical substance): stress protein genes, DNA chip", "method": "Yeast (Saccharomyces cerevtisiae S288C (α SUC2mal mel gap2 CUP1)) were cultured at 25° C. on YPD medium (yeast extract 1%, polypepton 2%, glucose 2%). One of toxic chemical substances was added to the cell at logarithmic growth phase, and the cell was further cultured for two hours. Cell was cultured without any chemical substance in the same condition, and was used as control. Concentrations of the chemical substances were defined to inhibit the growth of the yeast but not lead to death.\nAfter the completion of cultivation, the culture was centrifuged to collect the cells. To the cells, sodium acetate buffer (50 mM sodium acetate, 10 mM EDTA, 1% SDS) was added, and the mixture was shaken at 65° C. for five minutes, followed by returning to room temperature, and obtaining the supernatant, which procedure was repeated two times. To the supernatant, ½ amount of a solution of phenol/chloroform was added, and the mixture was centrifuged to give a supernatant, which was added with an equal amount of chloroform, and the mixture was centrifuged to give a supernatant. To the supernatant, an equal amount of isopropanol containing 0.3 M sodium acetate was added, and the mixture was allowed to stand at room temperature for 30 minutes, after which the mixture was centrifuged to give a sediment of the whole RNAs. Seventy % ethanol was added to the sediment, and the mixture was again centrifuged to give a sediment, which was then dried and dissolved in water. mRNA was isolated from the whole RNAs as followings. In view of the fact that a poly A chain is attached to the 3′ terminus of mRNA, a polynucleotide having a poly T structure which was immobilized on the surface of latex beads was used to trap the mRNA, and then the mRNA was washed and eluted with spine column (Oligotex-dT30<Super>mRNA Purification Kit, Takara). Reverse transcription of the mRNA was conducted with a reverse transcriptase (Super Script II Reverse Transcriptase; catalogue No. 18064-014, GibcoBRL) using fluorescence-labeled nucleotides to give cDNAs that were introduced with Cy3-dUTP or Cy5-dUTP during the reverse transcription.\nThe labeled cDNAs were dissolved in TE buffer (10 mM Tris-HCl/1 mM EDTA, pH8.0), and the solution was dropped on the DNA chip containing the whole genes of yeast (DNA Chip Research Inc. Japan) so that the cDNAs were hybridized on the DNA chip at 65° C. for over 12 hours. The fluoresces intensity of the DNA chip was read with a scanner, and the ratio relative to the fluorescence intensity resulting from the absence of chemical substance was estimated as the following, which is shown in Tables 1 to 9: [formula]\nIn the Tables, “Intensity” indicated in the rightmost column is a value of the level of expressed mRNA of each gene in control cells as divided by the average level of the expressions of the whole genes.", "data": [{"molecule": "CCCCC[C@H](O)CC(=O)CCc1ccc(O)c(OC)c1", "note": "[(13), gingerol]", "values": [{"measurement": "The level of expressed mRNA in the presence of chemical substance/absence: YOR267C", "setting": "gene YOR267C", "value": 1.4}, {"measurement": "The level of expressed mRNA in the presence of chemical substance/absence: YOR325W", "setting": "gene YOR325W", "value": 0.6}, {"measurement": "level of expressed mRNA in the presence of chemical substance/in its absence", "setting": "gene YOR336W", "value": 2.1}, {"measurement": "level of expressed mRNA in the presence of chemical substance/in its absence", "setting": "gene YOR344C", "value": 1.8}, {"measurement": "level of expressed mRNA in the presence of chemical substance/in its absence", "setting": "gene YOR347C", "value": 1.8}, {"measurement": "The level of expressed mRNA in the presence of chemical substance/absence: YPL005W", "setting": "gene YPL005W", "value": 1.2}, {"measurement": "level of expressed mRNA in the presence of chemical substance/in its absence", "setting": "gene YPL017C", "value": 1.9}, {"measurement": "The level of expressed mRNA in the presence of chemical substance / the level in the absence of chemical substance, yeast gene YPL107W", "setting": "gene YPL107W, DNA chip fluorescence ratio to control without chemical, 2 hours culture with chemical, growth-inhibiting non-lethal concentration", "value": 0.8}, {"measurement": "The level of expressed mRNA in the presence of chemical substance / the level in the absence of chemical substance, yeast gene YPL138C", "setting": "gene YPL138C, DNA chip fluorescence ratio to control without chemical, 2 hours culture with chemical, growth-inhibiting non-lethal concentration", "value": 0.6}, {"measurement": "The level of expressed mRNA in the presence of chemical substance/absence: YPL150W", "setting": "gene YPL150W", "value": 2.1}, {"measurement": "The level of expressed mRNA in the presence of chemical substance/absence: YPL151C", "setting": "gene YPL151C", "value": 1.4}, {"measurement": "The level of expressed mRNA in the presence of chemical substance/absence: YPL152W", "setting": "gene YPL152W", "value": 1.4}, {"measurement": "The level of expressed mRNA in the presence of chemical substance/absence: YPL168W", "setting": "gene YPL168W", "value": 1.0}, {"measurement": "The level of expressed mRNA in the presence of chemical substance/absence: YPL180W", "setting": "gene YPL180W", "value": 1.5}, {"measurement": "The level of expressed mRNA in the presence of chemical substance/absence: YPL188W", "setting": "gene YPL188W", "value": 0.9}, {"measurement": "The level of expressed mRNA in the presence of chemical substance/absence: YPL221W", "setting": "gene YPL221W", "value": 1.0}, {"measurement": "The level of expressed mRNA in the presence of chemical substance/absence: YPL225W", "setting": "gene YPL225W", "value": 0.8}, {"measurement": "The level of expressed mRNA in the presence of chemical substance/absence: YPL249C", "setting": "gene YPL249C", "value": 1.8}, {"measurement": "The level of expressed mRNA in the presence of chemical substance/absence: YPL260W", "setting": "gene YPL260W", "value": 1.4}, {"measurement": "level of expressed mRNA in the presence of chemical substance/in its absence", "setting": "gene YPL265W", "value": 1.1}, {"measurement": "level of expressed mRNA in the presence of chemical substance/in its absence", "setting": "gene YPR006C", "value": 1.8}, {"measurement": "level of expressed mRNA in the presence of chemical substance/in its absence", "setting": "gene YPR026W", "value": 2.3}, {"measurement": "The level of expressed mRNA in the presence of chemical substance/absence: YPR049C", "setting": "gene YPR049C", "value": 1.6}, {"measurement": "The level of expressed mRNA in the presence of chemical substance/absence: YPR061C", "setting": "gene YPR061C", "value": 1.1}, {"measurement": "The level of expressed mRNA in the presence of chemical substance/absence: YPR093C", "setting": "gene YPR093C", "value": 1.4}, {"measurement": "The level of expressed mRNA in the presence of chemical substance/absence: YPR146C", "setting": "gene YPR146C", "value": 1.3}, {"measurement": "The level of expressed mRNA in the presence of chemical substance/absence: YPR148C", "setting": "gene YPR148C", "value": 1.2}, {"measurement": "The level of expressed mRNA in the presence of chemical substance/absence: YPR150W", "setting": "gene YPR150W", "value": 1.4}, {"measurement": "The level of expressed mRNA in the presence of chemical substance/absence: YPR158W", "setting": "gene YPR158W", "value": 1.6}, {"measurement": "The level of expressed mRNA in the presence of chemical substance/absence: YPR169W", "setting": "gene YPR169W", "value": 1.0}, {"measurement": "The level of expressed mRNA in the presence of chemical substance/absence: YPR172W", "setting": "gene YPR172W", "value": 1.3}, {"measurement": "The level of expressed mRNA in the presence of chemical substance/absence: YPR174C", "setting": "gene YPR174C", "value": 1.4}, {"measurement": "The level of expressed mRNA in the presence of chemical substance/The level of expressed mRNA in the absence of chemical substance", "setting": "yeast gene YAR010C", "value": 1.4}, {"measurement": "The level of expressed mRNA in the presence of chemical substance/The level of expressed mRNA in the absence of chemical substance", "setting": "yeast gene YBL005W-A", "value": 2.9}, {"measurement": "The level of expressed mRNA in the presence of chemical substance/ (ratio to absence), gene YBL038W", "setting": "yeast gene YBL038W, mitochondria-located protein genes, 2 h culture with chemical", "value": 1.0}, {"measurement": "The level of expressed mRNA in the presence of chemical substance/The level of expressed mRNA in the absence of chemical substance", "setting": "yeast gene YBL041W", "value": 2.6}, {"measurement": "The level of expressed mRNA in the presence of chemical substance/The level of expressed mRNA in the absence of chemical substance", "setting": "yeast gene YBL043W", "value": 1.8}, {"measurement": "The level of expressed mRNA in the presence of chemical substance/The level of expressed mRNA in the absence of chemical substance", "setting": "yeast gene YBL078C", "value": 5.0}, {"measurement": "The level of expressed mRNA in the presence of chemical substance/ (ratio to absence of chemical substance)", "setting": "yeast gene YBL093C", "value": 2.1}, {"measurement": "The level of expressed mRNA in the presence of chemical substance/ (in its absence), gene YBR036C", "setting": "yeast gene YBR036C, ratio of DNA chip fluorescence intensity to that without chemical substance", "value": 1.9}, {"measurement": "The level of expressed mRNA in the presence of chemical substance/ (ratio to absence of chemical substance)", "setting": "yeast gene YBR044C", "value": 1.2}, {"measurement": "The level of expressed mRNA in the presence of chemical substance/ (ratio to absence), gene YBR122C", "setting": "yeast gene YBR122C, mitochondria-located protein genes, 2 h culture with chemical", "value": 0.8}, {"measurement": "The level of expressed mRNA in the presence of chemical substance/The level of expressed mRNA in the absence of chemical substance", "setting": "yeast gene YBR214W", "value": 2.1}, {"measurement": "The level of expressed mRNA in the presence of chemical substance/ (ratio to absence), gene YBR251W", "setting": "yeast gene YBR251W, mitochondria-located protein genes, 2 h culture with chemical", "value": 1.0}, {"measurement": "The level of expressed mRNA in the presence of chemical substance/ (in its absence), gene YBR298C", "setting": "yeast gene YBR298C, ratio of DNA chip fluorescence intensity to that without chemical substance", "value": 0.8}, {"measurement": "The level of expressed mRNA in the presence of chemical substance/The level of expressed mRNA in the absence of chemical substance", "setting": "yeast gene YCL020W", "value": 3.0}, {"measurement": "The level of expressed mRNA in the presence of chemical substance/The level of expressed mRNA in the absence of chemical substance", "setting": "yeast gene YCL027W", "value": 1.1}, {"measurement": "The level of expressed mRNA in the presence of chemical substance/The level of expressed mRNA in the absence of chemical substance", "setting": "yeast gene YCR004C", "value": 1.3}, {"measurement": "The level of expressed mRNA in the presence of chemical substance/ (ratio to absence), gene YCR046C", "setting": "yeast gene YCR046C, mitochondria-located protein genes, 2 h culture with chemical", "value": 1.5}, {"measurement": "The level of expressed mRNA in the presence of chemical substance/The level of expressed mRNA in the absence of chemical substance", "setting": "yeast gene YCR071C", "value": 1.3}, {"measurement": "The level of expressed mRNA in the presence of chemical substance/ (ratio to absence), gene YCR083W", "setting": "yeast gene YCR083W, mitochondria-located protein genes, 2 h culture with chemical", "value": 1.8}, {"measurement": "The level of expressed mRNA in the presence of chemical substance/ (ratio to absence of chemical substance)", "setting": "yeast gene YCR083W", "value": 1.8}, {"measurement": "The level of expressed mRNA in the presence of chemical substance/The level of expressed mRNA in the absence of chemical substance", "setting": "yeast gene YCR088W", "value": 1.9}, {"measurement": "The level of expressed mRNA in the presence of chemical substance/The level of expressed mRNA in the absence of chemical substance", "setting": "yeast gene YDL008W", "value": 2.0}, {"measurement": "The level of expressed mRNA in the presence of chemical substance/ in its absence, gene YDL067C", "setting": "yeast gene YDL067C, energy system protein genes, 2 h culture with the chemical, ratio to control without chemical", "value": 0.6}, {"measurement": "The level of expressed mRNA in the presence of chemical substance/ (ratio to absence), gene YDL067C", "setting": "yeast gene YDL067C, mitochondria-located protein genes, 2 h culture with chemical", "value": 0.6}, {"measurement": "The level of expressed mRNA in the presence of chemical substance/ in its absence, gene YDL078C", "setting": "yeast gene YDL078C, energy system protein genes, 2 h culture with the chemical, ratio to control without chemical", "value": 1.0}]}]}
